Measured values from patent US20060216299A1, “Cell cycle targets and peptides” (Rigel Pharmaceuticals, Inc., priority 2002, published 2006).
Where no end group is shown, it is not given here.

Key:
[1] = system: A549 lung carcinoma cells; test: Fluorescence microscopy examination of A549 cells exposed to lys7-peptides (nuclei, apoptosis, cell cycle stage, 48 hours); assay type: cell-based, human; conditions: for number of observed cell nuclei remaining: A549 cells, 48 hours exposure, increasing doses; for cell cycle stage distribution: asynchronously growing A549 cells, 48 hours, remaining cells that have not undergone apoptosis
Description: A549 tumor cells (American Type Culture Collection, Fairfax Va.) were plated at 2000 cells per well in 96 well plates with F12k media supplemented with 10% fetal bovine serum and 1% penicillin/streptomycin and allowed to grow for 24 hours. Peptide dissolved in media was added to the cells to a final concentration of 0.8 to 100 uM in triplicate. Following incubation with peptide for 24 or 48 hours, cells were fixed with 3.7% formaldehyde for 30 minutes, rinsed in PBS and stained with DAPI (Molecular Probes, OR) to label nuclear DNA. Digital images of the labeled nuclei in each well were taken using a Zeiss Axiovert microscope, UV filter set and Photometrics camera.

A549 cells = test: High content imaging of anti-proliferative synthetic K7 peptides (nuclei and apoptotic nuclei, 24 hours); assay type: cell-based, human
Description: A549 cells (American Type Culture Collection (ATCC), Manassas, Va., U.S.A.) were plated at 2000 cells/well in 96 well plates with F12K media supplemented with 10% fetal bovine serum and 1% penicillin/streptomycin and allowed to grow for 24 hours. Peptide dissolved in media was added to the cells to a final concentration ranging from 0.8 to 25 uM in triplicate. Following incubation with peptide for 24 hours, cells were fixed with 3.7% formaldehyde for 30 minutes, rinsed in PBS and stained with DAPI (Molecular Probes) to label nuclear DNA. Digital images were taken of the labeled nuclei in each well using a Zeiss Axiovert microscope, UV filter set and Photometrics camera.

[2] = system: A549 cells expressing GFP fusion #38 and #41; test: Displacement of cellular localization of GFP fusion peptides by synthetic analogues; assay type: cell-based, human; conditions: 100 μM peptide, 5 hours
Description: GFP fused #38, #40, and #41 were concentrated at the plasma membrane and granular cytoplasmic structures. […] We examined whether synthetic analogues can displace cellular localization of GFP fusion peptides. A549 cells expressing GFP fusion #38 and #41 were incubated with 100 μM of K7—#41, K7—#41M and K7—#40 for 5 hours and GFP localization was analyzed using a fluorescent microscope.

A549.tTA cells [3] = test: Cell tracker assay (Dil) of GFP fusion peptides; assay type: cell-based; conditions: for cell death after infection of retrovirus encoding GFP fused peptides: A549.tTA cells, data not shown; for anti-proliferative effect (cell tracker assay, in words): GFP-fused peptides expressed in A549.tTA cells
Description: A549.tTA cells were infected with tet-regulatable retroviruses expressing GFP fusion peptides, stained with the cell tracker dye, Dil, and incubated at 37° C. for five days. After the incubation, fluorescent intensity of GFP and Dil was analyzed with MoFlo. A growth ratio was obtained as the ratio of mean Dil fluorescent intensity for the GFP positive population relative to that of the GFP negative population.
Effect of GFP fused peptides and their mutants. GFP fused peptides (#40, #41, #88 and their mutants) expressing A549.tTA cells were stained with Dil and fluorescent intensity of GFP and Dil was examined with MoFlo. A growth ratio was obtained as described above. Mutated residues were underlined. Amino acid sequences of #40, #41, and #88 were aligned with leucine-rich motifs of HIV-1 Rev (amino acid position 75 to 84, gi|16118296|gb|AAL12672.1|), HTLV-1 Rex (amino acid position 82 to 93, gi|7963889|gb|AAF71372.1), Mitogen-activated protein kinase kinase 1, MAPKK, (amino acid position 33 to 43, gi|5579478|ref|NP_002746.1|), Human homologue of mouse double minute 2, Hdm-2, (amino acid position 190 to 200, gi|4505137|ref|NP_002383.1|), and Protein kinase inhibitor, PKI (amino acid position 38 to 48, gi|203271|gb|AAA40867.1|).
Effect of GFP fused peptides and their mutants. A549.tTA cells were infected with retroviruses encoding GFP fusion peptides (#38 and its mutants) and stained with the cell tracker dye, Dil. After the infection, fluorescent intensity of GFP and Dil was examined with MoFlo. A growth ratio was obtained as the ratio of mean Dil fluorescent intensity for the GFP positive population relative to that of the GFP negative population and data are shown as mean±SE in duplicate. Mutated residues or non-identical residues of the C-terminus of cell division cycle 42 isoform 2, CDC42C, (amino acid position 183 to 191, gi|16357472|ref|NP_426359.1|) to #38 were underlined. As controls, entire GFP-C20 library, dsGFP and GFP fused p21C expressing A549.tTA cells were used.

A549.tTA cells [4] = test: Cell cycle analysis (Hoechst 33258) of cells expressing GFP fusion peptides; assay type: cell-based, human; conditions: GFP low (R1) and GFP high (R2) populations
Description: A549.tTA cells expressing GFP fusion peptides were fixed with Cell Fixation/Permeabilization Kits (BD bioscience, Lexington, Ky., U.S.A.) as manufacturer's recommendation and stained with 5 mM Hoechst 33258 (Sigma, St. Louis, Mo., U.S.A.). GFP and Hoechst fluorescent intensity was analyzed with MoFlo.

[5] = system: A549.tTA cells expressing #38 and #41; test: Role of farnesylation in cellular localization of GFP fused #38; assay type: cell-based, human; conditions: 2 μM L-744,832, 48 hours
Description: #38 has a CAAX box motif in the C-terminus. A 15-carbon farnesyl or 20-carbon geranylgeranyl isoprenoid is linked to the Cys in a CAAX box motif by Farnesyl transferase or Geranylgeranyl transferase, respectively (Fu, H. W. et al., Recent Prog Horm Res, 54:315-342; discussion 342-313 (1999)). The role of farnesylation in cellular localization of #38 was examined. A549.tTA cells expressing #38 and #41 were treated with a peptidomimetic farnesyltransferase specific inhibitor, L-744,832 for 48 hours.

[6] = Table 1, GFP fused peptides in A549.tTA cells, ratio of mean Dil fluorescent intensity, GFP positive relative to GFP negative population, five days

Compound	number of observed cell nuclei remaining [1]	cell cycle stage distribution [1]	apoptotic nuclei (A549 cells)	change of cellular localization of GFP fusion #41 [2]	cell death after infection of retrovirus encoding GFP fused peptides (A549.tTA cells [3])	anti-proliferative effect (cell tracker assay, in words) (A549.tTA cells [3])	Growth Ratio (mean ± SE) (A549.tTA cells [3]; [6])	cell cycle profile (DNA content, Hoechst 33258) (A549.tTA cells [4])	cellular localization of #38 in the presence of inhibitor [5]	Growth Ratio (mean ± SE) (A549.tTA cells [3]; Table 2, GFP fusion #38 and mutants in A549.tTA cells, ratio of mean Dil intensity, GFP positive relative to GFP negative, duplicate)
synthetic #41 fused with seven Lys (K7) via a linker (GGEEAAKA) at the N-terminus [K7—#41]	ca. 10 % of original values	G1 phase cells were depleted and the percent of M phase cells increased significantly	increase in apoptotic nuclei	punctuated localization of GFP and loss of GFP localization in the cell-cell contact area						
RLRRICSGILLIRRILGIFVRPVRP [#88]					did not observe massive cell death	significant inhibitors of cell proliferation	2.7 ± 0.4	no significant change in the DNA content profile		
CC[C@H](C)[C@@H](CO[C@@H](Cc1ccccc1)C(=O)N[C@@H](CCS(C)(=O)=O)C(=O)OC(C)C)NC[C@@H](N)CS [L-744,832]									completely abolished	
RWDPTRLLRFRFLRMLVRRSRPVRP (also: GFP fusion) [#40, anti-proliferative peptide tested as GFP fusion]					did not observe massive cell death	significant inhibitors of cell proliferation	2.4 ± 0.3	no significant change in the DNA content profile		
GRGCIFRWRRGLRGMMRLFK (also: GFP fusion) [#41, anti-proliferative peptide tested as GFP fusion]					did not observe massive cell death	significant inhibitors of cell proliferation	2.7 ± 0.2	arrested in G0/G1		
TSGLLKLVQAKRKCCIS ({GFP}-TSGLLKLVQAKRKCCIS; not fully specified; cysteine pairing not given here) [#38, 17mer anti-proliferative peptide with CAAX box motif, tested fused to the C-terminus of GFP]					did not observe massive cell death	significant inhibitors of cell proliferation		arrested in G0/G1		2.5 ± 0.2
synthetic #40 fused with seven Lys (K7) via a linker (GGEEAAKA) at the N-terminus [K7—#40]	ca. 10 % of original values	depletion of G1 cells, a complete loss of S and G2 cells at 100 mM levels, and an increase in M phase cells	increase in apoptotic nuclei	these changes were not seen						
